Test results: patent US20230141988A1, “PHARMACEUTICAL COMPOSITION FOR USE IN THE TREATMENT OF NEUROLOGICAL DISEASES” (Aclipse One Inc., priority 2020, published 2023)
Like-named read-outs stand apart in the source and are kept apart here.

Assays:
in vivo [1] = conditions: male, C57BL/6J, mouse, po, 25 mg/kg; for concentration at […]: […] post last day (Day 4) dose
Protocol: Male C57BL/6J mice were purchased from Si Bei Fu Laboratory Animal Technology Co. Ltd (Beijing, China). The animals were about 8 weeks old with body weights of 20-30 g on the dosing date. The animals were housed in a 12-hour light/12-hour dark cycle environment and had free access to food and water. All animals were fasted overnight and fed after 4 hours collection.
The formulation was freshly made prior to use. Preparation of formulation for oral dosing are as follows:
For Group 1 and 2, blood, CSF and brain samples were collected from 3 mice at the following time points.
Plasma samples: About 30 μL or 300 μL of blood samples were collected from each animal via dorsal metatarsal vein or heart. These blood samples were placed into the tubes containing K2EDTA. And centrifugation at 3000 g for 10 minutes in a 4° C. centrifuge. The completion time from collection was less than 30 min. The stabilizing agent of ascorbic acid at 200 mg/mL was added in a proportion of 10% in plasma. The plasma samples were stored in a freezer at −75±15° C. prior to analysis. The completion time from collection was less than 60 min.
Brain and CSF Samples: The animals were fully exsanguinated with a rising concentration of CO2 gas prior to CSF and brain collection.
For CSF collection, make an incision by scissors on the neck of the rats, and the foramen magnum is exposed to the sight of scientist. Use a syringe with a venoclysis needle to sample the CSF, the tip of the needle is insert into the membrane of foramen magnum about 1-2 mm, and then pull the stopcock a small length of the syringe to make a negative pressure, then the CSF fluids to the tube. Watch the fluid in the tube and pull the stopcock slowly, when the amount of the CSF is enough, stop and split the needle and the syringe to ensure there is no negative pressure in the tube. Then cut off the needle and collect the CSF fluid. If we could see the blood in the tube, stop immediately, split the needle and the syringe, and then cut off between the blood and CSF to ensure there is no blood in the CSF fluid. Then collect the CSF fluid. The stabilizing agent of ascorbic acid at 200 mg/mL was added in a proportion of 10% in CSF. The completion time from collection was less than 60 min.
For brain collection. Brain samples were collected at adopted time point, and washed 3 times with cold saline, then dried with clean gauze and put into the weighed tube, quick frozen in ice box and kept at −75±15° C. All brain samples were weighted and homogenized with phosphate buffered saline (PBS) by brain weight (g) to PBS volume (mL) ratio 1:3 before analysis. The stabilizing agent of ascorbic acid at 200 mg/mL was added in a proportion of 10% in Brain homogenate. The actual concentration was the detected value multiplied by the dilution factor. Brain samples were collected at designed time point, quickly homogenized and kept at −75±15° C. The completion time from collection was less than 60 min.
Calibration standard working solutions were prepared at concentrations of 0.2, 0.5, 1, 2, 5, 10, 50, 100, 500, 1000 ng/mL by serial dilution of the standard stock solution. These QC samples were prepared on the day of analysis in the same way as calibration standards.
Plasma: The desired serial concentrations of working solutions were achieved by diluting stock solution of analyte with 50% acetonitrile in water solution. 10 μL of working solutions (0.1, 0.2, 0.5, 1, 2, 5, 10, 50, 100, 500, 1000 ng/mL) were added to 10 μL of the blank C57BL/6J Mice plasma to achieve calibration standards of 0.1˜1000 ng/mL (0.1, 0.2, 0.5, 1, 2, 5, 10, 50, 100, 500, 1000 ng/mL) in a total volume of 20 μL.

in vivo [2] = conditions: male, cynomolgus monkey, po, 10 mg/kg, Plasma concentration, fed male Cynomolgus Monkeys
Protocol: (§1) Three male Cynomolgus Monkeys were administrated a single oral dose at 10 mg/kg. The oral vehicle was 10% (w/v) HP-β-CD in water.
(§2) Male Cynomolgus Monkeys were purchased from Topgene Biotechnology. The animals were 2-5 years old with body weights of 2.0-5.0 kg on the dosing date. The animals were housed in a 12-hour light/12-hour dark cycle environment and had free access to food and water.
(§3) All animals for PO administration were fasted overnight prior to dosing and will be fed approximately 2 hours after dosing.
(§4) Three male Cynomolgus Monkeys were assigned to this study. […] The dosing regimens and formulation (vehicle) compositions are described in the following table below:
(§5) Animals were weighed prior to dose administration on the day of dosing for calculating the actual dose volume. The dosages were prepared as illustrated in the table below:
(§6) Blood samples were taken at the following times:
(§7) Whole blood samples were gently inverted several times to ensure anticoagulation then placed on wet ice prior to centrifugation. Within 30 minutes of collection, the samples were centrifuged at approximately 4,000×g (force) for 5 minutes at 2 to 8° C. to obtain plasma. The stabilizing agent, ascorbic acid at 200 mg/mL, was added in a proportion of 10% in plasma. The plasma samples were stored in a freezer at −75±15° C. prior to analysis. The completion time from collection was less than 60 min. The resultant plasma samples will be immediately separated divided into 2 aliquots (˜75 μL each) and transferred to cryogenic vial. Samples will be maintained on wet ice throughout processing, and stored in a freezer at −75±15° C. prior to analysis. Samples should be protected from ambient light (under sodium lamp).
(§8) Calibration standard working solutions were prepared at concentrations of 2, 5, 10, 20, 100, 500, 1000, 5000, 10000 ng/mL by serial dilution of the standard stock solution in 1:1 acetonitrile:water. Quality control working solutions at concentrations of 5, 10, 20, 500 and 8000 ng/mL were prepared by serial dilution of the standard stock solution in 1:1 acetonitrile:water. The QC samples were prepared on the day of analysis in the same way as calibration standards.
(§9) Samples were prepared with 5 μL of each calibration standard working solution (2, 5, 10, 20, 100, 500, 1000, 5000, 10000 ng/mL) added to 50 μL of the blank Cynomolgus Monkeys plasma to achieve calibration standards concentrations of 0.2, 0.5, 1, 2, 10, 50, 100, 500, 1000 ng/mL (relative to a 50-4, plasma aliquot). Quality Control (QC) samples at 0.5 ng/mL (low-1), 1 ng/mL (low-2), 2 ng/mL (low-3), 50 ng/mL (mid) and 800 ng/mL (high) for plasma were prepared independently for those used for the calibration curves.
(§10) Total volumes of 55 μL of standards, 55 μL of QC samples and 55 μL of unknown samples (50 μL of plasma with 5 μL of 1:1 acetonitrile:water) were added to 200 μL of acetonitrile containing IS to precipitate proteins. Then the samples were vortexed for 30 sec. […] All of the samples were processed on ice.
(§11) The LC-MS/MS system consisted of two Shimadzu LC-30AD pumps, a DGU-20A5R degasser, a Rack changer II and an AB Sciex Triple Quad 5500 LC/MS/MS mass spectrometer. Chromatographic separation was performed on Agilent ZORBAX XDB-Phenyl 5 μm (50×2.1 mm) at room temperature. The mobile phase was composed of A: 5% Acetonitrile/95% water (0.1% Formic acid); B: 95% Acetonitrile/5% water (0.1% Formic acid). The flow rate was 0.6 mL/min. The injection volume was 2 μL.
(§12) A multiple reaction monitoring (MRM) method was selected for quantitative analysis. […] The instrument parameters were set as follows: ion spray voltage: 5500 V; curtain gas: 40 psi; ion source gas 1: 50 psi; ion source gas 2: 50 psi; temperature: 450° C. The compound dependent parameters are listed as follows:
(§13) HPLC flow rate was set at 0.6 mL/min with the following conditions:

[3] = Pharmacokinetic study, single IV, subcutaneous, PO and IN dose, male SD rats (plasma); conditions: rat, in vivo
Protocol: The vehicle for the IV, subcutaneous, PO and IN formulation contained “0.1% sodium metabisulfite solution”.
Male SD rats were purchased from Si Bei Fu Laboratory Animal Technology Co. Ltd (Beijing, China). The animals were about 8 weeks old with body weights of 200-300 g on the dosing date. The animals were housed in a 12-hour light/12-hour dark cycle environment and had free access to food and water. All animals were fasted overnight and fed after 4 hours collection.
Plasma samples were collected from jugular vein at each time point after IV, subcutaneous, PO and IN administrations.
About 200 μL of blood samples were collected from each animal via jugular vein. These blood samples were placed into the tubes containing K2EDTA. And centrifugation at 3000 g for 10 minutes in a 4° C. centrifuge. The completion time from collection was less than 30 min. The stabilizing agent of ascorbic acid at 200 mg/mL was added in a proportion of 10% in plasma. The plasma samples were stored in a freezer at −75±15° C. prior to analysis. The completion time from collection was less than 60 min.
Calibration standard working solutions were prepared at concentrations of 2, 5, 10, 20, 50, 100, 500, 1000, 5000 and 10000 ng/mL by serial dilution of the standard stock solution in 50% acetonitrile in water. Quality control working solutions at concentrations of 5, 10, 20, 500 and 8000 ng/mL were prepared by serial dilution of the standard stock solution in 50% acetonitrile in water. These QC samples were prepared on the day of analysis in the same way as calibration standards.
For plasma samples, 2 μL of each calibration standard working solution (2, 5, 10, 20, 50, 100, 500, 1000, 5000 and 10000 ng/mL) was added to 20 μL of the blank SD rat plasma (with 10% 200 mg/mL ascorbic acid) to achieve calibration standards of 0.2-1000 ng/mL (0.2, 0.5, 1, 2, 5, 10, 50, 100, 500, 1000 ng/mL) in a total volume of 22 μL. Quality Control (QC) samples at 0.5 ng/mL (low-1), 1 ng/mL (low-2) and 2 ng/mL (low-3), 50 ng/mL (mid), 800 ng/mL (high) for plasma were prepared independently for those used for the calibration curves. These QC samples were prepared on the day of analysis in the same way as calibration standards. The total volumes of 22 μL of standards, 22 μL of QC samples and 22 μL of unknown samples (20 μL of unknown plasma (with 10% 200 mg/mL ascorbic acid) with 2 μL 50% acetonitrile) were added to 200 μL of acetonitrile containing IS to precipitate proteins. Then the samples were vortexed for 30 sec. After centrifugation at 4° C., 4700 rpm for 30 min, and supernatant was diluted 2 times with water, 10 μL of the diluted supernatant was injected into the LC-MS/MS system for quantitative analysis.
All the samples were processed on ice.
The LC-MS/MS system consisted of two Shimadzu LC-30AD pumps, a DGU-20A5R degasser, a Rack changer II and LCMS-8060 LC/MS/MS instrument mass spectrometer.
OD-3R Particle size 3 μm 4.6 mm×150 mm column at room temperature. The mobile phase was composed of A: Water (5 mM Ammonium Acetate); B: Ethanol (5 mM Ammonium Acetate). The flow rate was 0.5 mL/min. The injection volume was 10 μL.
A multiple reaction monitoring (MRM) method was selected for quantitative analysis. […] The instrument parameters were set as follows: ion spray voltage: 8060; heating gas flow: 10 L/min; interface temperature: 250° C.; DL temperature: 220° C.; heat block temperature: 400° C.; drying gas flow: 10 L/min.
Data acquisition was performed by Lab Solutions version 5.89 Software (Shimadzu). All concentration data was reported with 3 significant figures. Data statistics were performed using Excel 2010 software.
The linear trapezoidal algorithm was used for AUC calculation.

[4] = plasma, fed male Cynomolgus Monkeys, PO 10 mg/kg, animal 168777C
Protocol: as §1, §2, §3, §4, §5, §6, §7, §8, §9, §10, §11, §12, §13

## CN1CCc2cccc3c2[C@@H]1Cc1ccc(O)c(O)c1-3
In vivo [1]
  Tmax: 6 min
  Cmax: 200 ng/mL
In vivo [1]; AUClast, plasma, Mean, male C57BL/6J mice, single oral dose 25 mg/kg
  AUC(0-t): 857 ng·h/mL
In vivo [1]; Brain concentration, Mean
  concentration at 0.5 h: 65.7 ng/g
  concentration at 1 h: 22.6 ng/g
  concentration at 2 h: 16.8 ng/g
  concentration at 3 h: 11.5 ng/g
In vivo [1]; Brain concentration, Mean, male C57BL/6J mice, repeated oral dose 25 mg/kg
  concentration at […]: 2330 ng/g
In vivo [1]; Brain concentration, male C57BL/6J mice, repeated oral dose 25 mg/kg, 2 h post last day (Day 4) dose, G3
  concentration at 2 h: 10.9 ng/g
In vivo [1]; Brain concentration, male C57BL/6J mice, repeated oral dose 25 mg/kg, G3
  concentration at […]: 1080 ng/g
In vivo [1]; CSF concentration
  concentration at 1 h: 3.71 ng/mL
  concentration at 2 h: 3.08 ng/mL
  concentration at 4 h: 4.08 ng/mL
In vivo [1]; CSF concentration, Mean
  concentration at 0.5 h: 7.7 ng/mL
  concentration at 1 h: 3.32 ng/mL
  concentration at 2 h: 3.56 ng/mL
  concentration at 4 h: 3.42 ng/mL
In vivo [1]; CSF concentration, Mean, male C57BL/6J mice, repeated oral dose 25 mg/kg
  concentration at […]: 50.2 ng/mL
In vivo [1]; CSF concentration, male C57BL/6J mice, repeated oral dose 25 mg/kg, G2
  concentration at […]: 178 ng/mL
In vivo [1]; CSF concentration, male C57BL/6J mice, single oral dose 25 mg/kg, 1 h, G3
  concentration at 1 h: 3.18 ng/mL
In vivo [1]; CSF, Mean, male C57BL/6J mice, single oral dose 25 mg/kg
  Cmax: 56.4 ng/mL
In vivo [1]; brain, Mean, male C57BL/6J mice, last day (Day 4) of repeated oral dose 25 mg/kg
  Cmax: 2330 ng/mL
In vivo [1]; brain, Mean, male C57BL/6J mice, single oral dose 25 mg/kg
  Cmax: 729 ng/mL
In vivo [1]; plasma, Mean, male C57BL/6J mice, last day (Day 4) of repeated oral dose 25 mg/kg
  Cmax: 1360 ng/mL
In vivo [1]; plasma, Mean, male C57BL/6J mice, single oral dose 25 mg/kg
  Cmax: 1150 ng/mL
In vivo [1]; Plasma concentration
  concentration at 2 h: 100 ng/mL
  concentration at 8 h: 0.765 ng/mL
  concentration at 12 h: 0.198 ng/mL
In vivo [1]; Plasma concentration, Mean
  concentration at 0.5 h: 528 ng/mL
  concentration at 1 h: 235 ng/mL
  concentration at 2 h: 74.4 ng/mL
  concentration at 3 h: 72.4 ng/mL
  concentration at 8 h: 0.87 ng/mL
  concentration at 12 h: 0.174 ng/mL
In vivo [1]; Plasma concentration, Mean, male C57BL/6J mice, repeated oral dose 25 mg/kg
  concentration at […]: 1360 ng/mL
In vivo [1]; Plasma concentration, Mean, male C57BL/6J mice, single oral dose 25 mg/kg, 2 h
  concentration at 2 h: 122 ng/mL
In vivo [1]; Plasma concentration, male C57BL/6J mice, repeated oral dose 25 mg/kg, 1 h post last day (Day 4) dose, G1
  concentration at 1 h: 112 ng/mL
In vivo [1]; Plasma concentration, male C57BL/6J mice, repeated oral dose 25 mg/kg, 3 h post last day (Day 4) dose, G3
  concentration at 3 h: 73.1 ng/mL
In vivo [1]; Plasma concentration, male C57BL/6J mice, repeated oral dose 25 mg/kg, 8 h post last day (Day 4) dose, G3
  concentration at 8 h: 1.24 ng/mL
In vivo [1]; Plasma concentration, male C57BL/6J mice, repeated oral dose 25 mg/kg, G1
  concentration at […]: 1460 ng/mL
In vivo [1]; Plasma concentration, male C57BL/6J mice, repeated oral dose 25 mg/kg, G2
  concentration at […]: 1520 ng/mL
In vivo [1]; Plasma concentration, male C57BL/6J mice, repeated oral dose 25 mg/kg, G3
  concentration at […]: 1110 ng/mL
In vivo [1]; Plasma concentration, male C57BL/6J mice, single oral dose 25 mg/kg, 1 h, G2
  concentration at 1 h: 162 ng/mL
In vivo [1]; Plasma concentration, male C57BL/6J mice, single oral dose 25 mg/kg, 2 h, G2
  concentration at 2 h: 138 ng/mL
In vivo [2]; animal 168777C
  concentration at 0.5 h: 4.15 ng/mL
  concentration at 2 h: 6.27 ng/mL
In vivo [2]; animal 168779C
  concentration at 0.5 h: 1.26 ng/mL
  concentration at 2 h: 6.27 ng/mL
  concentration at 4 h: 8.04 ng/mL
In vivo [2]; animal 169939C
  concentration at 0.5 h: 0.975 ng/mL
  concentration at 4 h: 5.91 ng/mL
In vivo [2]; 1 h, animal 169939C
  concentration at 1 h: 2.81 ng/mL
In vivo [2]; 8 h, animal 168777C
  concentration at 8 h: 1.13 ng/mL
[3]; iv, 0.88 mg/kg
  Cl: 209 mL/min/kg
[3]; po, […]
  AUClast/D: 7.39 mg·h/mL
[3]; sc, 0.88 mg/kg
  AUClast/D: 77.3 mg·h/mL
[4]
  AUClast/D: 4.26 mg·h/mL
